Data published in patent US11788061B2, “Method for producing mesenchymal stem cells that inhibit proliferation of cancer cells” (priority 2016, dated 2023).

How the values were obtained:
Type in all cases: cell-based, human
Vit.C-MSCs [1] = experiment: Characteristics of Vit.C-MSCs cultured in aspirin-containing medium (microscope, Luna automated cell counter); details: aspirin concentration of 1 mM or less, 24 hours
Description: The Vit.C-MSCs cultured in a medium containing vitamin C of Example 1 were incubated for 2 days for adherence and stabilization. Then, the Vit.C-MSCs were cultured in fresh RKCM-N medium supplemented with concentrations of 0.1 mM, 0.5 mM, 1 mM and 10 mM of aspirin for 24 hours. The cell morphologies of Vit.C-MSCs by aspirin were monitored with an […] (100× magnification, Leica DMIL) (FIG. 2), and the proliferation rate, viability and cell size were analyzed using a Luna automated cell counter (Logoy) (FIG. 3).

Vit.C-MSCs [2] = experiment: Evaluation of toxicity of aspirin on Vit.C-MSCs (cck-8); details: aspirin concentration of 5 mM or less, 24 hours, cck-8 absorbance at 450 nm
Description: The Vit.C-MSCs cultured in a medium containing vitamin C of Example 1 were seeded on a 96-well cell culture plate at a concentration of 1×10^4 cells/plate, and then incubated overnight for cell adherence and stabilization. Then, the cells were cultured in a fresh RKCM-N medium, that is, keratinocyte-SFM containing 5% FBS, 2 mM NAC, 0.2 mM ascorbic acid, 0.09 mM calcium, 5 ng/ml rEGF, 5 μg/ml insulin and 74 ng/ml hydrocortisone, supplemented with aspirin in various concentrations of 0.005 mM, 0.001 mM, 0.05 mM, 0.1 mM, 0.5 mM, 1 mM, 5 mM and 10 mM, for 24 hours. A cck-8 (cell counting Kit-8, Dojindo) solution (10 μl/100 μl) was added to each well and reacted for 2 hours, and the absorbance at 450 nm was measured using a plate reader (Lonza).

[3] = system: CD marker expression on the stem cell surface; experiment: Surface CD marker expression by FACS, overall statement; details: 0.1 mM, 0.5 mM and 1 mM of aspirin, 24 hours
Description: The Vit.C-MSCs cultured in a medium containing vitamin C were cultured for 2 days for adherence and stabilization, and were cultured in fresh RKCM-N media supplemented with aspirin at concentrations of 0.1 mM, 0.5 mM and 1 mM for 24 hours. The CD marker expression on the stem cell surface in the following Table 2 was compared between two types of MSCs, that is, Vit.C-MSCs and ASP-Vit.C-MSCs cultured in aspirin using FACS.

CC(=O)Oc1ccccc1C(=O)O [aspirin]
cell size of stem cells (Vit.C-MSCs [1]): did not affect | morphology of stem cells (Vit.C-MSCs [1]): did not affect | proliferation rate of stem cells (Vit.C-MSCs [1]): did not affect | viability of stem cells (Vit.C-MSCs [1]): did not affect | cytotoxicity of Vit.C-MSCs (Vit.C-MSCs [2]): almost no cytotoxicity | CD marker expression on the stem cell surface [3]: not changed
